From patent US7312188B2, “Peptide derivatives having β-secretase inhibitory activity” (priority 2003, dated 2007)

Biological target: T1, recombinant human BACE-1 (rhBACE-1) (Homo sapiens, UniProt P56817)
T1 construct: expressed as only an extracellular region (amino acid 1-460 residues) of recombinant human β-secretase; His tag (C); purchased R&D systems (Minneapolis, Minn.); host or cells: murine myeloma cell line NS0
Experiment: BACE1 inhibitory activity, reverse phase HPLC quantitation of N-terminal fragment of fluorogenic substrate
Type: biochemical
Details: 1 μL of inhibitor solution in DMSO (100 μM) in 50 μL reaction; MES buffer pH 5.0; 37° C., 60 minutes
From the text: Experiment Regarding Measurement of BACE1 Inhibitory Activity
Enzyme Used in Measurement
As an enzyme having β-secretase activity, recombinant human BACE-1 (rhBACE-1) purchased from R&D systems (Minneapolis, Minn.) was used. rhBACE-1 is expressed as only an extracellular region (amino acid 1-460 residues) of recombinant human β-secretase, with a His tag at its carboxyl terminal in murine myeloma cell line, NS0. Purified secreted rhBACE1 is a mixture of a pro entity (about 75 kDa) and a mature entity (about 72 kDa).
Assessment of Enzyme Inhibitory Activity
Enzyme inhibitory activity of an inhibitor was assessed by quantitating an N-terminal fragment produced aftercleaving the substrate with BACE1 by reverse HPLC using (7-methoxycoumarin-4-yl)acetyl-[…]2,4-dinitrophenyl)-Arg-Arg-NH2 purchased from Peptide Institute (Osaka, Japan) as a substrate for BACE1. To 40 μL of 62.5 mM 2-(N-morpholino)ethansulfonic acid (MES)-CH3COOH—NaOH buffer (pH 5.0), were added 1 μL of a solution of an inhibitor diluted with DMSO (100 μM), 4 μL of rhBACE-1 (6.25 ng/μL), and 5 μL of an aqueous solution (50% DMSO) of 250 μM substrate (7-methoxycoumarin-4-yl)acetyl-[…]2,4-dinitrophenyl)-Arg-Arg-NH2 to initiate an enzyme reaction. After incubation at 37° C. for 60 minutes, 20 μL of 20% trichloroacetic acid was added to stop the reaction. And, inhibition % was calculated by measuring a fluorescent intensity of the N-terminal fragment (Ex, 328 nm; Em, 393 nm) using reverse phase HPLC (linear gradient of MeCN in aqueous TFA; flow rate, 1.0 mL/min).
BACE1 Inhibitory Activity
Enzyme inhibitory activity of an inhibitor was assessed by quantitating a N-terminal fragment produced after cleavage of a substrate with BACE1 by reverse phase HPLC using (7-methoxycoumarin-4-yl)acetyl-[…]2,4-dinitrophenyl)-Arg-Arg-NH2 purchased from Peptide Institute (Osaka, Japan) as a substrate for BACE1. Recombinant human BACE-1 purchased from R&D systems (Minneapolis, Minn.) was used. To 40 μL of 62.5 mM 2-(N-morpholino)ethansulfonic acid (MES)-CH3COOH—NaOH buffer (pH 5.0), were added 1 μL of a solution of an inhibitor diluted with DMSO (100 μM), 4 μL of BACE1 (6.25 ng/μL), and 5 μL of an aqueous solution (50% DMSO) of 250 μM substrate (7-methoxycoumarin-4-yl)acetyl-[…]2,4-dinitrophenyl)-Arg-Arg-NH2 to initiate an enzyme reaction. After incubation at 37° C. for 60 minutes, 20 μL of 20% trichloroacetic acid was added to stop a reaction. Inhibition % was calculated by measuring a fluorescent intensity of the N-terminal fragment (Ex, 328 nm; Em, 393 nm) using reverse phase HPLC (linear gradient of MeCN in aqueous TFA; flow rate, 1.0 mL/min).

T1 sequence (P56817 22-460 limits assumed): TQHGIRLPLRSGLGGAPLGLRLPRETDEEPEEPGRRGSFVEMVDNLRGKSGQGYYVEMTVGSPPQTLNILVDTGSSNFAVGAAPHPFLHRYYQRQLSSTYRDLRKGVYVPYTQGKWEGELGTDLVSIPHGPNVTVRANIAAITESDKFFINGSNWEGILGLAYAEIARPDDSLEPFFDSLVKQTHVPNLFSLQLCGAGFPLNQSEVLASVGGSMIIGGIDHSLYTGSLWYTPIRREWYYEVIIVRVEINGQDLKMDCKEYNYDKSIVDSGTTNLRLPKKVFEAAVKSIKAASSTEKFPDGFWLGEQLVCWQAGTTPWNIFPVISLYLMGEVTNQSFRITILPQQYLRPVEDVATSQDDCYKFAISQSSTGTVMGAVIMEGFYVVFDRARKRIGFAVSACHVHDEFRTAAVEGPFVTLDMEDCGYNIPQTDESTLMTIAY

Row | SMILES | inhibition at 2 µM | inhibition at 100 µM (stock)
1 | CCCC[C@H](NC(=O)[C@@H](NC(=O)[C@@H](N)CCC(=O)O)C(C)C)C(=O)N[C@@H](Cc1ccccc1)[C@@H](O)C(=O)Nc1cccc(C(=O)O)c1 [Example 141] | 67.5% | –
2 | CC(C)C[C@H](NC(=O)[C@@H](NC(=O)C(N)CNC(=O)c1ccccc1O)C(C)C)C(=O)N[C@@H](Cc1ccccc1)[C@@H](O)C(=O)Nc1cccc(C(=O)O)c1 (some centres unmarked) [Example 146] | – | 74.7%
3 | CC(C)C[C@H](NC(=O)[C@@H](NC(=O)[C@@H](N)CNC(=O)c1cc(O)cc(O)c1)C(C)C)C(=O)N[C@@H](Cc1ccccc1)[C@@H](O)C(=O)Nc1cccc(C(=O)O)c1 [Example 148] | – | 93.8%
4 | CC(C)C[C@H](NC(=O)[C@@H](NC(=O)[C@@H](N)CCC(=O)O)C(C)C)C(=O)N[C@@H](Cc1ccccc1)[C@@H](O)C(=O)Nc1cc(Cl)c(O)c(Cl)c1 [Example 149] | 80.1% | –
5 | CC[C@H](C)[C@H](NC(=O)[C@@H](NC(=O)[C@@H](N)CCC(=O)O)C(C)C)C(=O)N[C@@H](Cc1ccccc1)[C@@H](O)C(=O)Nc1cccc(C(=O)O)c1 [Example 153] | 65.8% | –
6 | CC(C)C[C@H](NC(=O)[C@@H](NC(=O)[C@@H](N)CCC(=O)O)C(C)C)C(=O)N[C@@H](Cc1ccccc1)[C@@H](O)C(=O)NC1CCCC(C(=O)O)C1 (some centres unmarked) [Example 155] | – | 69.7%
7 | CC(C)C[C@H](NC(=O)[C@@H](NC(=O)[C@@H](N)CCC(=O)O)C(C)C)C(=O)N[C@@H](Cc1ccccc1)[C@@H](O)C(=O)Nc1cc(Cl)cc(Cl)c1 [Example 156] | – | 78.3%
8 | CCOC(=O)COc1c(Cl)cc(NC(=O)[C@H](O)[C@H](Cc2ccccc2)NC(=O)[C@H](CC(C)C)NC(=O)[C@@H](NC(=O)[C@@H](N)CCC(=O)O)C(C)C)cc1Cl [Example 158] | 66.1% | –
9 | CC(C)C[C@H](NC(=O)[C@@H](NC(=O)[C@@H](N)CCC(=O)O)C(C)C)C(=O)N[C@@H](Cc1ccccc1)[C@@H](O)C(=O)NCc1ccc(Cl)c(Cl)c1 [Example 162] | 71.5% | –
10 | CC(C)C[C@H](NC(=O)[C@@H](NC(=O)[C@@H](N)CCC(=O)O)C(C)C)C(=O)N[C@@H](Cc1ccccc1)[C@@H](O)C(=O)Nc1cc(Cl)c(OCC(=O)O)c(Cl)c1 [Example 163] | 88.3% | –
11 | CC(C)[C@H](NC(=O)[C@@H](N)CCC(=O)O)C(=O)N[C@H](C(=O)N[C@@H](Cc1ccccc1)[C@@H](O)C(=O)Nc1cccc(C(=O)O)c1)c1ccccc1 [Example 164] | 64.1% | –
12 | CC(C)[C@H](NC(=O)[C@@H](N)CCC(=O)O)C(=O)N[C@@H](CCc1ccccc1)C(=O)N[C@@H](Cc1ccccc1)[C@@H](O)C(=O)Nc1cccc(C(=O)O)c1 [Example 166] | 84.9% | –
13 | CC(C)C[C@H](NC(=O)[C@@H](NC(=O)[C@@H](N)CCC(=O)O)c1ccccc1)C(=O)N[C@@H](Cc1ccccc1)[C@@H](O)C(=O)Nc1cccc(C(=O)O)c1 [Example 169] | 61.6% | –
14 | CC(C)C[C@H](NC(=O)[C@@H](NC(=O)[C@@H](N)CNC(=O)c1ccc(O)cc1O)C(C)C)C(=O)N[C@@H](Cc1ccccc1)[C@@H](O)C(=O)Nc1cccc(C(=O)O)c1 [Example 173] | – | 86.1%
15 | Cc1cc(NC(=O)[C@H](O)[C@H](Cc2ccccc2)NC(=O)[C@H](CC(C)C)NC(=O)[C@@H](NC(=O)[C@@H](N)CCC(=O)O)C(C)C)cc(C)c1OCC(=O)O [Example 178] | 73.4% | –
16 | CC(C)C[C@H](NC(=O)[C@@H](NC(=O)[C@@H](N)CCC(=O)O)C(C)C)C(=O)N[C@@H](Cc1ccccc1)[C@@H](O)C(=O)Nc1cc(C(N)=O)cc(C(=O)O)c1 [Example 179] | 83.7% | –
17 | CNC(=O)c1cc(NC(=O)[C@H](O)[C@H](Cc2ccccc2)NC(=O)[C@H](CC(C)C)NC(=O)[C@@H](NC(=O)[C@@H](N)CCC(=O)O)C(C)C)cc(C(=O)NC)c1 [Example 180] | 51.4% | –
18 | COC(=O)c1cc(N)cc(C(=O)NC[C@H](N)C(=O)N[C@H](C(=O)N[C@@H](CC(C)C)C(=O)N[C@@H](Cc2ccccc2)[C@@H](O)C(=O)Nc2cccc(C(=O)O)c2)C(C)C)c1 [Example 181] | – | 82.5%
19 | CC(C)C[C@H](NC(=O)[C@@H](NC(=O)[C@@H](N)CCC(=O)O)C(C)C)C(=O)N[C@@H](Cc1ccccc1)[C@@H](O)C(=O)Nc1cc(Cl)c(OCC(N)=O)c(Cl)c1 [Example 182] | – | 75.7%

The next lines start with results.

Row | inhibition at 2 µM | SMILES | inhibition at 100 µM (stock)
20 | 89.8% | CC(C)C[C@H](NC(=O)[C@@H](NC(=O)[C@@H](N)CNC(=O)c1cc(=O)[nH]c(=O)[nH]1)C(C)C)C(=O)N[C@@H](Cc1ccccc1)[C@@H](O)C(=O)Nc1cccc(C(=O)O)c1 [Example 142] | –
21 | 69% | CC(C)C[C@H](NC(=O)[C@@H](NC(=O)[C@@H](N)CNC(=O)c1ccc[nH]1)C(C)C)C(=O)N[C@@H](Cc1ccccc1)[C@@H](O)C(=O)Nc1cccc(C(=O)O)c1 [Example 143] | –
22 | 50.5% | Cc1c(O)cccc1C(=O)NC[C@H](N)C(=O)N[C@H](C(=O)N[C@@H](CC(C)C)C(=O)N[C@@H](Cc1ccccc1)[C@@H](O)C(=O)Nc1cccc(C(=O)O)c1)C(C)C [Example 145] | –
23 | 59.5% | Cc1cccc(C(=O)NC[C@H](N)C(=O)N[C@H](C(=O)N[C@@H](CC(C)C)C(=O)N[C@@H](Cc2ccccc2)[C@@H](O)C(=O)Nc2cccc(C(=O)O)c2)C(C)C)c1O [Example 147] | –
24 | 90.8% | CC(C)C[C@H](NC(=O)[C@@H](NC(=O)[C@@H](N)CNC(=O)c1cccc(O)c1)C(C)C)C(=O)N[C@@H](Cc1ccccc1)[C@@H](O)C(=O)Nc1cccc(C(=O)O)c1 [Example 150] | –
25 | 57% | CC(C)C[C@H](NC(=O)[C@@H](NC(=O)[C@@H](N)CCC(=O)O)C(C)(C)C)C(=O)N[C@@H](Cc1ccccc1)[C@@H](O)C(=O)Nc1cccc(C(=O)O)c1 [Example 151] | –
26 | 69.9% | CC(C)C[C@H](NC(=O)[C@@H](NC(=O)[C@@H](N)CNC(=O)c1ccc(O)cc1)C(C)C)C(=O)N[C@@H](Cc1ccccc1)[C@@H](O)C(=O)Nc1cccc(C(=O)O)c1 [Example 154] | –
27 | 71.3% | CC(C)[C@H](NC(=O)[C@@H](N)CCC(=O)O)C(=O)N[C@@H](Cc1cc2ccccc2[nH]1)C(=O)N[C@@H](Cc1ccccc1)[C@@H](O)C(=O)Nc1cccc(C(=O)O)c1 [Example 160] | –
28 | 64.7% | CCC[C@H](NC(=O)[C@@H](NC(=O)[C@@H](N)CCC(=O)O)C(C)C)C(=O)N[C@@H](Cc1ccccc1)[C@@H](O)C(=O)Nc1cccc(C(=O)O)c1 [Example 161] | –
29 | 73.7% | CC(C)[C@H](NC(=O)[C@@H](N)CCC(=O)O)C(=O)N[C@@H](Cc1cccc2ccccc12)C(=O)N[C@@H](Cc1ccccc1)[C@@H](O)C(=O)Nc1cccc(C(=O)O)c1 [Example 165] | –
30 | 60% | CC(C)[C@H](NC(=O)[C@@H](N)CCC(=O)O)C(=O)N[C@@H](Cc1ccc(Cl)cc1)C(=O)N[C@@H](Cc1ccccc1)[C@@H](O)C(=O)Nc1cccc(C(=O)O)c1 [Example 168] | –
31 | 60.5% | CC(C)[C@H](NC(=O)[C@@H](N)CCC(=O)O)C(=O)N[C@@H](Cc1ccc(Cl)c(Cl)c1)C(=O)N[C@@H](Cc1ccccc1)[C@@H](O)C(=O)Nc1cccc(C(=O)O)c1 [Example 170] | –
32 | 91.8% | CC(C)C[C@H](NC(=O)[C@@H](NC(=O)[C@@H](N)CNC(=O)c1cc(N)cc(C(=O)O)c1)C(C)C)C(=O)N[C@@H](Cc1ccccc1)[C@@H](O)C(=O)Nc1cccc(C(N)=O)c1 [Example 171] | –
33 | 89.5% | CC(C)C[C@H](NC(=O)[C@@H](NC(=O)[C@@H](N)CNC(=O)c1cccc(O)c1O)C(C)C)C(=O)N[C@@H](Cc1ccccc1)[C@@H](O)C(=O)Nc1cccc(C(=O)O)c1 [Example 172] | –
34 | 81.8% | CC(C)C[C@H](NC(=O)[C@@H](NC(=O)[C@@H](N)CNC(=O)c1ccco1)C(C)C)C(=O)N[C@@H](Cc1ccccc1)[C@@H](O)C(=O)Nc1cccc(C(=O)O)c1 [Example 174] | –
35 | 98.5% | CC(C)C[C@H](NC(=O)[C@@H](NC(=O)[C@@H](N)CNC(=O)c1cc(N)cc(C(=O)O)c1)C(C)C)C(=O)N[C@@H](CSc1ccccc1)[C@@H](O)C(=O)Nc1cccc(C(=O)O)c1 [Example 177] | –
